In paper PMC7822874, “Chemoprotective antimalarials identified through quantitative high-throughput screening of Plasmodium blood and liver stage parasites” (Scientific Reports, 2021):
Like-named read-outs stand apart in the source and are kept apart here.

How the values were obtained:
[1] = system: P. berghei-ANKA-GFP-LucCON liver stage parasites in HepG2-A16-CD81EGFP cells; experiment: P. berghei liver stage Pb-Luc assay, Method 1 (UCSD, 1536-well); format: cell-based, Plasmodium berghei; conditions: for Max Resp (signal direction of the dose response) / AC50 / Log AC50 (M): Method 1; for Max Resp (signal direction of the dose response): Decrease = decreasing P. berghei viability with dose, Increase = increasing signal, Inactive = no dose response; for activity at 1 µM / activity at 3 µM: 48 h, average of 2 wells on a 1536 well plate; for activity at 1 µM: 1 uM (compounds provided at 10 mM); for activity at 3 µM: 3 uM (compounds provided at 10 mM)
[2] = system: Plasmodium falciparum Dd2 asexual blood stage parasites; experiment: microbe, parasite or virus in culture; design: species or system Plasmodium falciparum Dd2 in human erythrocytes; single determination (one 11-point concentration-response curve); conditions: Plasmodium falciparum, DD2, Erythrocyte, 72 h; read-out: AC50
[3] = in vitro; conditions: human, HepG2-A16-CD81EGFP cells, uninfected
[4] = Hill fit, 50% of maximum activity response, read-out: AC50
[5] = log10 of molar AC50 from Hill fit
[6] = Plasmodium berghei, Hill fit, 50% of maximum activity response, read-out: AC50
[7] = Plasmodium berghei, log10 of molar AC50 from Hill fit, read-out: Log AC50 (converted)
[8] = Plasmodium berghei, column 11, read-out: Pb-Luc (P. berghei liver stage), % of control, lower concentration, first repeat
[9] = Plasmodium berghei, column 12, read-out: Pb-Luc (P. berghei liver stage), % of control, lower concentration, second repeat
[10] = Plasmodium berghei, column 8, read-out: Pb-Luc (P. berghei liver stage), % of control, higher concentration, first repeat
[11] = Plasmodium berghei, column 9, read-out: Pb-Luc (P. berghei liver stage), % of control, higher concentration, second repeat

SMILES	Max Resp (signal direction of the dose response) [1]	AC50 [1, 4] [µM]	Log AC50 (M) [1, 5] [M]	AC50 [1, 6] [µM]	AC50 [1, 7] [µM]	AC50 [2] [µM]	viability at 48 h [3] [%]	viability at 48 h, 1 µM [3] [%]	viability at 66 h [3] [%]	activity at 1 µM [1, 8] [%]	activity at 1 µM [1, 9] [%]	activity at 3 µM [1, 10] [%]	activity at 3 µM [1, 11] [%]	viability at 48 h, 3 µM [3] [%]
Cc1[nH]c2c(C)cccc2c(=O)c1Br [MLS000036254-01]	Decrease	1.58	-5.800	1.12	1.12	5.31	107	107	–	–	–	–	–	–
COc1ccc(-c2c(C)nn3c(N)c(C#N)cnc23)cc1OC [MLS000718813-01]	Decrease	1.41	-5.850	1.26	1.26	1.68	–	–	108	–	–	–	–	–
COc1ccc(S(=O)(=O)N2CCC3(CC2)OCCN3S(=O)(=O)c2c(C)cc(C)cc2C)cc1 [MLS001237293-01]	–	–	–	–	–	2.66	–	108	–	88	81	87	75	103
CCCCCCCNC(=O)C1(CC2CC(c3ccc(Cl)cc3)=NO2)CCN(C(=O)c2cc(OCC)c(OCC)c(OCC)c2)CC1 (stereo not drawn) [MLS001143958-01]	Decrease	–	–	2.82	2.82	3.35	103	103	–	–	–	–	–	–
COc1cc2ccccc2cc1C(=O)N1CC(C)CC(C)C1 (stereo not drawn) [MLS001129394-01]	–	–	–	–	–	2.37	–	108	–	125	114	67	101	98
O=C(Nc1ccc(-c2csc(Nc3ccccc3)n2)cc1)c1cc([N+](=O)[O-])cc(C(F)(F)F)c1 [MLS000911606-01]	–	–	–	2.82	2.82	2.11	–	–	104	–	–	–	–	–
CC(C)(C)N1C(=O)c2ccc(C(=O)Nc3ccc(-c4nc5ccccc5[nH]4)cc3)cc2C1=O [MLS000567491-01]	–	–	–	–	–	6.68	–	94	–	114	117	141	128	108
CCCc1ccc(OCc2nc(-c3ccc(NC(=O)c4cccs4)cc3)no2)cc1 [MLS000584893-01]	Decrease	–	–	1.41	1.41	15	97.2	97.2	–	–	–	–	–	–
CCOC(=O)c1c(NC(=O)c2ccccc2)sc2c(O)c(CN(CC)CC)ccc12 [MLS000523141-01]	–	–	–	–	–	0.15	–	91	–	104	107	99	98	102
CCCCCNc1nc2sc3c(c2c(=O)n1-c1cccc(Cl)c1)CCN(C)C3 [MLS000762913-01]	–	–	–	–	–	7.5	–	92	–	99	101	72	91	105
CC(C)COc1ccc(C(=O)N/C(=C\c2cccc([N+](=O)[O-])c2)C(=O)OC(C)C)cc1 [MLS000574251-01]	–	–	–	–	–	0.531	–	111	–	90	84	65	69	102
Fc1ccc(-c2csc3ncnc(Cl)c23)cc1 [MLS000590541-01]	–	–	–	–	–	3.35	–	111	–	115	105	120	132	101
Cc1ccc(NC(=O)c2cc(C(=O)c3cc(Cl)ccc3O)cn(-c3ccc(C)cc3)c2=O)cc1 [MLS000374606-01]	–	–	–	–	–	0.422	–	106	–	98	87	59	61	93
